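Exposure lasted 48 hours, with cells grown in 96-well plates and compounds tested at five concentrations. GI50 is the concentration that inhibits growth by half.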 Activity calls are given as the source filed them. No stated cut-off is given here; in the data, active = GI50 up to about 1.1 µM and inactive = higher.
How the values were obtained:
Assay in all cases: inhibition of tumour cell growth, NCI panel, 48 h
786-0 = tested on: 786-0
A498 = tested on: A498
A549 = tested on: A549
ACHN = tested on: ACHN
BT-549 = tested on: BT-549
CAKI-1 = tested on: CAKI-1
CCRF-CEM = tested on: CCRF-CEM
COLO 205 = tested on: COLO 205
DU-145 = tested on: DU-145
EKVX = tested on: EKVX
HCC 2998 = tested on: HCC 2998
HCT-116 = tested on: HCT-116
HCT-15 = tested on: HCT-15
HL-60 = tested on: HL-60
HOP-62 = tested on: HOP-62
HOP-92 = tested on: HOP-92
HT-29 = tested on: HT-29
Hs-578T = tested on: Hs-578T
IGROV-1 = tested on: IGROV-1
K562 = tested on: K562
KM12 = tested on: KM12
LOX IMVI = tested on: LOX IMVI
MCF7 = tested on: MCF7
MDA-MB-435 = tested on: MDA-MB-435
MDA-N = tested on: MDA-N
MOLT-4 = tested on: MOLT-4
Malme-3M = tested on: Malme-3M
NCI-H226 = tested on: NCI-H226
NCI-H23 = tested on: NCI-H23
NCI-H460 = tested on: NCI-H460
NCI-H522 = tested on: NCI-H522
NCI/ADR-RES = tested on: NCI/ADR-RES
OVCAR-3 = tested on: OVCAR-3
OVCAR-4 = tested on: OVCAR-4
OVCAR-5 = tested on: OVCAR-5
OVCAR-8 = tested on: OVCAR-8
PC-3 = tested on: PC-3
RPMI-8226 = tested on: RPMI-8226
RXF 393 = tested on: RXF 393
SF-268 = tested on: SF-268
SF-295 = tested on: SF-295
SF-539 = tested on: SF-539
SK-MEL-28 = tested on: SK-MEL-28
SK-MEL-2 = tested on: SK-MEL-2
SK-MEL-5 = tested on: SK-MEL-5
SN12C = tested on: SN12C
SNB-19 = tested on: SNB-19
SNB-75 = tested on: SNB-75
SR = tested on: SR
SW-620 = tested on: SW-620
T47D = tested on: T47D
TK-10 = tested on: TK-10
U-251 = tested on: U-251
UACC-257 = tested on: UACC-257
UACC-62 = tested on: UACC-62
UO-31 = tested on: UO-31
M14 = tested on: M14
MDA-MB-231 = tested on: MDA-MB-231
SK-OV-3 = tested on: SK-OV-3

Cc1ccc2c(c1)C/C(=C\c1ccccc1C(=O)O)C2=O
GI50 (786-0): > 100 µM (inactive)
GI50 (A498): > 100 µM (inactive)
GI50 (A549): > 100 µM (inactive)
GI50 (ACHN): > 100 µM (inactive)
GI50 (BT-549): > 100 µM (inactive)
GI50 (CAKI-1): > 100 µM (inactive)
GI50 (CCRF-CEM): > 100 µM (inactive)
GI50 (COLO 205): 35.6 µM (inactive)
GI50 (DU-145): > 100 µM (inactive)
GI50 (EKVX): > 100 µM (inactive)
GI50 (HCC 2998): > 100 µM (inactive)
GI50 (HCT-116): > 100 µM (inactive)
GI50 (HCT-15): > 100 µM
GI50 (HL-60): > 100 µM (inactive)
GI50 (HOP-62): > 100 µM (inactive)
GI50 (HOP-92): > 100 µM (inactive)
GI50 (HT-29): 40.6 µM (inactive)
GI50 (Hs-578T): > 100 µM (inactive)
GI50 (IGROV-1): > 100 µM (inactive)
GI50 (K562): 98.2 µM (inactive)
GI50 (KM12): > 100 µM (inactive)
GI50 (LOX IMVI): > 100 µM (inactive)
GI50 (MCF7): > 100 µM (inactive)
GI50 (MDA-MB-435): > 100 µM (inactive)
GI50 (MDA-N): > 100 µM (inactive)
GI50 (MOLT-4): > 100 µM (inactive)
GI50 (Malme-3M): > 100 µM (inactive)
GI50 (NCI-H226): 37 µM (inactive)
GI50 (NCI-H23): > 100 µM (inactive)
GI50 (NCI-H460): > 100 µM (inactive)
GI50 (NCI-H522): > 100 µM (inactive)
GI50 (NCI/ADR-RES): > 100 µM (inactive)
GI50 (OVCAR-3): > 100 µM (inactive)
GI50 (OVCAR-4): > 100 µM (inactive)
GI50 (OVCAR-5): > 100 µM (inactive)
GI50 (OVCAR-8): > 100 µM (inactive)
GI50 (PC-3): > 100 µM (inactive)
GI50 (RPMI-8226): 43.7 µM (inactive)
GI50 (RXF 393): > 100 µM (inactive)
GI50 (SF-268): > 100 µM (inactive)
GI50 (SF-295): > 100 µM (inactive)
GI50 (SF-539): 50.1 µM (inactive)
GI50 (SK-MEL-28): > 100 µM (inactive)
GI50 (SK-MEL-2): > 100 µM (inactive)
GI50 (SK-MEL-5): 52.6 µM (inactive)
GI50 (SN12C): > 100 µM (inactive)
GI50 (SNB-19): > 100 µM (inactive)
GI50 (SNB-75): > 100 µM (inactive)
GI50 (SR): 46.3 µM (inactive)
GI50 (SW-620): > 100 µM (inactive)
GI50 (T47D): > 100 µM (inactive)
GI50 (TK-10): > 100 µM (inactive)
GI50 (U-251): > 100 µM (inactive)
GI50 (UACC-257): > 100 µM (inactive)
GI50 (UACC-62): > 100 µM (inactive)
GI50 (UO-31): 98.6 µM (inactive)

CC(=O)Nc1ccc(N2C(=O)/C(=C\c3cccc(Oc4ccccc4)c3)SC2c2ccccc2)cc1 (stereo unspecified)
GI50 (786-0): 37.8 µM (inactive)
GI50 (A498): 50.1 µM (inactive)
GI50 (A549): 27.1 µM (inactive)
GI50 (ACHN): 71 µM (inactive)
GI50 (BT-549): 33.3 µM (inactive)
GI50 (CAKI-1): 66.4 µM (inactive)
GI50 (CCRF-CEM): 17.3 µM (inactive)
GI50 (COLO 205): 70.3 µM (inactive)
GI50 (DU-145): 27.5 µM (inactive)
GI50 (EKVX): 42.7 µM (inactive)
GI50 (HCC 2998): > 100 µM (inactive)
GI50 (HCT-116): 18.1 µM (inactive)
GI50 (HCT-15): 78.5 µM
GI50 (HL-60): 25.4 µM (inactive)
GI50 (HOP-62): 22.6 µM (inactive)
GI50 (HOP-92): 16.6 µM (inactive)
GI50 (Hs-578T): 12.7 µM (inactive)
GI50 (K562): 33.1 µM (inactive)
GI50 (KM12): 24.4 µM (inactive)
GI50 (LOX IMVI): 17.2 µM (inactive)
GI50 (M14): 32.3 µM (inactive)
GI50 (MCF7): 21 µM (inactive)
GI50 (MDA-MB-231): 32.6 µM (inactive)
GI50 (MDA-MB-435): 32.5 µM (inactive)
GI50 (MDA-N): 18.9 µM (inactive)
GI50 (MOLT-4): 27.9 µM (inactive)
GI50 (Malme-3M): 28 µM (inactive)
GI50 (NCI-H226): 22 µM (inactive)
GI50 (NCI-H23): 26.1 µM (inactive)
GI50 (NCI-H460): 50.7 µM (inactive)
GI50 (NCI-H522): 23.2 µM (inactive)
GI50 (NCI/ADR-RES): 29.5 µM (inactive)
GI50 (OVCAR-3): 25.5 µM (inactive)
GI50 (OVCAR-4): 32.4 µM (inactive)
GI50 (OVCAR-5): > 100 µM (inactive)
GI50 (OVCAR-8): 17.1 µM (inactive)
GI50 (RPMI-8226): 24.7 µM (inactive)
GI50 (RXF 393): 30.4 µM (inactive)
GI50 (SF-268): 50.6 µM (inactive)
GI50 (SF-295): 38.5 µM (inactive)
GI50 (SF-539): 19.3 µM (inactive)
GI50 (SK-MEL-28): 27.4 µM (inactive)
GI50 (SK-MEL-2): 30.4 µM (inactive)
GI50 (SK-MEL-5): 23.7 µM (inactive)
GI50 (SK-OV-3): 16.1 µM (inactive)
GI50 (SN12C): 26.8 µM (inactive)
GI50 (SNB-19): 19.8 µM (inactive)
GI50 (SR): 21 µM (inactive)
GI50 (SW-620): 30.8 µM (inactive)
GI50 (T47D): 54.1 µM (inactive)
GI50 (TK-10): 34.4 µM (inactive)
GI50 (U-251): 14.7 µM (inactive)
GI50 (UACC-257): 35 µM (inactive)
GI50 (UACC-62): 22.4 µM (inactive)
GI50 (UO-31): 82.6 µM (inactive)

— ChEMBL document CHEMBL1201862, “PubChem BioAssay data set” (2004)
